Reference: ChEMBL document CHEMBL1201862, “PubChem BioAssay data set” (2004)
Calls of active or inactive are those of the source.

Assays:
[1] = molecular target: Beta-galactosidase (Escherichia coli, UniProt Q8VNN2); assay: PubChem AID 485352; format: functional
[2] = molecular target: T1, Type-1 angiotensin II receptor (Homo sapiens, UniProt P30556); assay: antagonism of angiotensin II type 1 receptor – cell-based, uHTS hits, selectivity assay for APJ receptor antagonist project, dose response (AID 463214); format: functional;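 further: antagonist potency against angiotensin II stimulated AT1 response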
T1 sequence (P30556 whole entry): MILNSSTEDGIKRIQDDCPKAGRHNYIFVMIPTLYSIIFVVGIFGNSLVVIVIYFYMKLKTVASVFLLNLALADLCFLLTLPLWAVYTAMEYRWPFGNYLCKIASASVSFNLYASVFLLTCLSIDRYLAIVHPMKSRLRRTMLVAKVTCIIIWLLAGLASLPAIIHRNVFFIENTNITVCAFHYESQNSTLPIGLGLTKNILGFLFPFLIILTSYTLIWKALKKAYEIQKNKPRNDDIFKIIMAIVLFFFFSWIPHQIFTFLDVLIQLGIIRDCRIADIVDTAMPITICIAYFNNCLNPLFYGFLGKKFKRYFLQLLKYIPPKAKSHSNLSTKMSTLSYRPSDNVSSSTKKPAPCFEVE

[3] = molecular target: T2, Replicative DNA helicase DnaB (Mycobacterium tuberculosis, UniProt P9WMR3); assay: DnaB intein splicing inhibitors, dose response, biochemical, cell-free fluorescence (AID 449749); format: functional
T2 sequence (P9WMR3 whole entry): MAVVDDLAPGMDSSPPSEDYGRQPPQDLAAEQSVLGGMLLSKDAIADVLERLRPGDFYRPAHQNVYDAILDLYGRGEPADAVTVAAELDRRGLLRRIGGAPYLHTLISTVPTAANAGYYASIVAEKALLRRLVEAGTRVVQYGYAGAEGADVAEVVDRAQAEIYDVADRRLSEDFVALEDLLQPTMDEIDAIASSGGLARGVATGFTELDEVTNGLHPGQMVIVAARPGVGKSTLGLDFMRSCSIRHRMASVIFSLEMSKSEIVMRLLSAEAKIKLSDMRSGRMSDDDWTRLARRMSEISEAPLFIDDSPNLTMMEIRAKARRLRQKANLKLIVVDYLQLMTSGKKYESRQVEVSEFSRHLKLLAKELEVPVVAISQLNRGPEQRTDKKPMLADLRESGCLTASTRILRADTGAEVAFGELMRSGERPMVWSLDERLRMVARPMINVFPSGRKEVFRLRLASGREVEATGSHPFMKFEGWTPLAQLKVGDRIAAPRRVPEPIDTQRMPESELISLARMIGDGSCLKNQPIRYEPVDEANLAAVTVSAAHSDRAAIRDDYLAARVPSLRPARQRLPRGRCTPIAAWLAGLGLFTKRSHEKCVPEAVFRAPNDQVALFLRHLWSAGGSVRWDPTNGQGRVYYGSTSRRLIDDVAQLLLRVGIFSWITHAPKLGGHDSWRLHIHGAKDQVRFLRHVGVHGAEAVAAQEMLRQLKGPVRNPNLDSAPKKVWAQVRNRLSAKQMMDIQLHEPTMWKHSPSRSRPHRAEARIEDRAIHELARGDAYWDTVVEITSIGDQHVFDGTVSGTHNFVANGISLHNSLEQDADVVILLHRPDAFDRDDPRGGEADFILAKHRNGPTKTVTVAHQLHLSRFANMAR

[4] = molecular target: T3, Protein RecA (Mycobacterium tuberculosis, UniProt P9WHJ3); assay: Fluorescence Cell-Free Homogeneous Dose Retest to Identify Inhibitors of RecA-Intein Splicing Activity. [Related pubchem assays (depositor defined):AID2097, AID2223, AID489010, AID492950]; format: functional
T3 sequence (P9WHJ3 whole entry): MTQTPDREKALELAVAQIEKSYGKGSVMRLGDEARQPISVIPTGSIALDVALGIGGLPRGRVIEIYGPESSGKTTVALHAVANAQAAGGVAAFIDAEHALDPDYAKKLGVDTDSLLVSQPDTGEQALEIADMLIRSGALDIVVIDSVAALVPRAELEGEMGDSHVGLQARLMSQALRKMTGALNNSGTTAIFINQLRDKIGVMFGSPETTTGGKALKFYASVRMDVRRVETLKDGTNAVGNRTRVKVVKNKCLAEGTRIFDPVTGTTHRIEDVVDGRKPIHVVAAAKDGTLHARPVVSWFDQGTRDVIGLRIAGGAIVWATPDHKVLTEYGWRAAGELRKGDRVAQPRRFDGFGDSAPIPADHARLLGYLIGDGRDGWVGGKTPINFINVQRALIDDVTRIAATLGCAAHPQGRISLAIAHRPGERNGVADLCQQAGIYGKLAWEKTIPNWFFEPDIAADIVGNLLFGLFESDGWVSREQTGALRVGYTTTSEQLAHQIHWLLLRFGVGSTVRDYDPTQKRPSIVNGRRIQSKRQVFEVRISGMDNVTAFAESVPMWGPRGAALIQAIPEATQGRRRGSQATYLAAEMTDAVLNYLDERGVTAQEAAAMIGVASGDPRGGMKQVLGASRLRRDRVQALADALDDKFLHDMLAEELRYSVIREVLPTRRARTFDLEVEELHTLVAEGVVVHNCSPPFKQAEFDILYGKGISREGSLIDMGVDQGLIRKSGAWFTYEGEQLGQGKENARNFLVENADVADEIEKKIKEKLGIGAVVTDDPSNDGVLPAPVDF

[5] = molecular target: T4, Sentrin-specific protease 8 (Homo sapiens, UniProt Q96LD8); format: functional
T4 sequence (Q96LD8 whole entry): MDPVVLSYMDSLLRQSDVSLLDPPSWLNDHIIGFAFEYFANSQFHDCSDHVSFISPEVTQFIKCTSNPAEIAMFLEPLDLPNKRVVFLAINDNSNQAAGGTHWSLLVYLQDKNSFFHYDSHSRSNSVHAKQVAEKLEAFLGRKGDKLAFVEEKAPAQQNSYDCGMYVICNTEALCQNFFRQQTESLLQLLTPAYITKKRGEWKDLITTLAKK

[6] = molecular target: T4, Sentrin-specific protease 8; format: functional; remark: listed apart in the source
[7] = molecular target: Cytochrome P450 2D6 (Homo sapiens, UniProt P10635);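 further: CYP2D6 member of a cytochrome P450 panel assay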
[8] = molecular target: Cytochrome P450 2C9 (Homo sapiens, UniProt P11712)
[9] = molecular target: Disintegrin and metalloproteinase domain-containing protein 17 (Homo sapiens, UniProt P78536); assay: exosite inhibitors of ADAM17, dose response, biochemical (AID 743260)
[10] = inhibition of ADAM10 peptide cleavage – biochemical, FRET peptide substrate, recombinant human ADAM10, selectivity assay for ADAM17 exosite inhibitor project, dose response (AID 743259);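 further: ADAM10 enzyme cleaving a FRET peptide substrate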
[11] = Trypanosoma cruzi growth suppression in host cells – NIH3T3 host cells, beta-gal luminescence, confirmation (AID 2044); format: functional, cell-based;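 further: intracellular parasites grown in NIH/3T3 mouse fibroblasts as host cells; luminescent beta-galactosidase reporter signal from transgenic T. cruzi replicating inside host cells; inhibitors lower the luminescence signal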
[12] = microbe, parasite or virus in culture; format: functional; details: Mycobacterium tuberculosis
[13] = NIH3T3 cell viability loss – ATP luminescence, mouse fibroblasts, counter-screen, dose response (AID 2010); format: functional, cell-based;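 further: cells exposed to compound for about 90 hours before reading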
[14] = molecular target: T5, Apoptotic protease-activating factor 1 (Homo sapiens, UniProt O14727); format: functional
T5 sequence (O14727 whole entry): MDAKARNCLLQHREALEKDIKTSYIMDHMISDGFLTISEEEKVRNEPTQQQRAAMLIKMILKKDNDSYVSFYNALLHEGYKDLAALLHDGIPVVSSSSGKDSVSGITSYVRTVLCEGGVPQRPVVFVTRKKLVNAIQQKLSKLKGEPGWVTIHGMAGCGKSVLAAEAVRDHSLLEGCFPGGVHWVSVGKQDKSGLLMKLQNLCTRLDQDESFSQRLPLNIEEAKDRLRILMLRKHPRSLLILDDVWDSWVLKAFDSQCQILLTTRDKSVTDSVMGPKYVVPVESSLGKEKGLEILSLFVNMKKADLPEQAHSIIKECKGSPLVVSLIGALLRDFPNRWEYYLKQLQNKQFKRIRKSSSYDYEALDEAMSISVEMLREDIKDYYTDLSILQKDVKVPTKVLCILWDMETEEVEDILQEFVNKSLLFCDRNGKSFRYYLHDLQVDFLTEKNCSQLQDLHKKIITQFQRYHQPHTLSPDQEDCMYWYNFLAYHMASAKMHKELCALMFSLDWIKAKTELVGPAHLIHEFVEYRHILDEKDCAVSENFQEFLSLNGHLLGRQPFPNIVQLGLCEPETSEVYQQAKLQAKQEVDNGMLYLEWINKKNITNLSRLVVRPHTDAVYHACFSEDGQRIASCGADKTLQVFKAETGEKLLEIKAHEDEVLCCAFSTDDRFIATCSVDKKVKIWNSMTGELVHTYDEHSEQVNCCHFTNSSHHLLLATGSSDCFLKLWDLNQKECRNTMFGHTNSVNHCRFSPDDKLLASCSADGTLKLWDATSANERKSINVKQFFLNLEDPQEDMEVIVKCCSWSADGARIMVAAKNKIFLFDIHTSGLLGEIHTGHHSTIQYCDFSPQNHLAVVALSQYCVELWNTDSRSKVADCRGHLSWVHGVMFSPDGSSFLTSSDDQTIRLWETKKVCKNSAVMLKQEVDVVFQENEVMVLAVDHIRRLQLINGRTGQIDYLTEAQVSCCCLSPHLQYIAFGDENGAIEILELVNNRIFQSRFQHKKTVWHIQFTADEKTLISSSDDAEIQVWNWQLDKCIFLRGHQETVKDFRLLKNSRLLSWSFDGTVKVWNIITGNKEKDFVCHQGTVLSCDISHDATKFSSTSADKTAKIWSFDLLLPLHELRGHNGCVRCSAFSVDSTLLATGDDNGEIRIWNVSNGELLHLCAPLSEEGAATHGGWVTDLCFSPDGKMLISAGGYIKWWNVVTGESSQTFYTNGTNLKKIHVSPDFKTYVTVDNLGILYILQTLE

[15] = molecular target: Paired box protein Pax-8 (Homo sapiens, UniProt Q06710); assay: PAX8 transcriptional activity inhibition in RMG-I – RMG-I cells, luciferase, cherry-pick, dose response (AID 687027); format: functional, cell-based;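 further: luciferase reporter driven by Pax8 target thyroperoxidase promoter measured by SteadyGlo luminescence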
[16] = general cell-killing toxicity readout – plate reader, dry powder samples, cytotoxicity control for PAX8 inhibitor project, dose response (AID 743021); format: functional, cell-based
[17] = blockers of HIV-1 envelope-mediated cell-cell fusion – cherry-pick, dose response (AID 652057); format: functional, cell-based
[18] = blockers of HIV-1 ZM109 envelope-driven cell-cell fusion – HeLa effector, CEM target cells, luciferase, cherry-pick, dose response (AID 652058); format: functional, cell-based;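 further: luciferase signal from HIV-1 Env mediated cell-cell fusion of effector and target cells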
[19] = HIV-1 AD8 envelope cell-cell fusion blockers – cherry-pick, dose response (AID 652062); format: functional, cell-based;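 further: luciferase signal from cell-cell fusion driven by HIV-1 clade B AD8 Env; potency is for inhibitors of fusion seen as a drop in luminescence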
[20] = IGROV1 cell killing – plate reader, dry powder samples, PAX8 inhibitor project, dose response (AID 743043); format: functional, cell-based; details: IGROV-1
[21] = OVCAR8 cell viability loss – plate reader, dry powder samples, PAX8 project, dose response (AID 743197); format: functional, cell-based; details: OVCAR-8

Beta-galactosidase, sequence (Q8VNN2 whole entry): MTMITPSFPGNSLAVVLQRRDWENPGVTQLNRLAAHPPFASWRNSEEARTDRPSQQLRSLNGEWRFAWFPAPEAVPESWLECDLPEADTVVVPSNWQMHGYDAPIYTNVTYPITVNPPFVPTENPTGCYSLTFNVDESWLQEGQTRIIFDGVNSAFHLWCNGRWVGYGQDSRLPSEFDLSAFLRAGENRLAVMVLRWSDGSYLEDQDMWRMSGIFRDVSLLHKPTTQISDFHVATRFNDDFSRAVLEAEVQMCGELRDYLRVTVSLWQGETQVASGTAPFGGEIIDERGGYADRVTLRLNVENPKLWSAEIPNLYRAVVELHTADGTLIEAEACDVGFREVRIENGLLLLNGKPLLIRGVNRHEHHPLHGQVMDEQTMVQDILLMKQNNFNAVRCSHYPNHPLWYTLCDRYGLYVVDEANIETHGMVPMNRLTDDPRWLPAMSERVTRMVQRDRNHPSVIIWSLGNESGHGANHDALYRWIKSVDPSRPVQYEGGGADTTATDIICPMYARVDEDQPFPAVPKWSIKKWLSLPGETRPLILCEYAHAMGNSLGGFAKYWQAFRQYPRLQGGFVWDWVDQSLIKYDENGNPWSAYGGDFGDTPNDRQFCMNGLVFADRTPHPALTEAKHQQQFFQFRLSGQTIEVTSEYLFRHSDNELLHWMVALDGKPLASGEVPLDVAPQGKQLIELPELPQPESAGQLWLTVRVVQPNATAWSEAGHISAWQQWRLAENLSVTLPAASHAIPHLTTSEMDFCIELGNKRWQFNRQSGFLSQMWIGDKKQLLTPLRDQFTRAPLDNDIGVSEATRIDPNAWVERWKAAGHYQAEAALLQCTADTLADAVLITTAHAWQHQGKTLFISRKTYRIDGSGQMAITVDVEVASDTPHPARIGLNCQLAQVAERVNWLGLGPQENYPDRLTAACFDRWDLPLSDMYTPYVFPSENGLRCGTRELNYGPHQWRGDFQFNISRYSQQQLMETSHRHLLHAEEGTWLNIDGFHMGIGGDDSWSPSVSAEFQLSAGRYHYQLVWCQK
Disintegrin and metalloproteinase domain-containing protein 17, sequence (P78536 whole entry, the tested form may be a part): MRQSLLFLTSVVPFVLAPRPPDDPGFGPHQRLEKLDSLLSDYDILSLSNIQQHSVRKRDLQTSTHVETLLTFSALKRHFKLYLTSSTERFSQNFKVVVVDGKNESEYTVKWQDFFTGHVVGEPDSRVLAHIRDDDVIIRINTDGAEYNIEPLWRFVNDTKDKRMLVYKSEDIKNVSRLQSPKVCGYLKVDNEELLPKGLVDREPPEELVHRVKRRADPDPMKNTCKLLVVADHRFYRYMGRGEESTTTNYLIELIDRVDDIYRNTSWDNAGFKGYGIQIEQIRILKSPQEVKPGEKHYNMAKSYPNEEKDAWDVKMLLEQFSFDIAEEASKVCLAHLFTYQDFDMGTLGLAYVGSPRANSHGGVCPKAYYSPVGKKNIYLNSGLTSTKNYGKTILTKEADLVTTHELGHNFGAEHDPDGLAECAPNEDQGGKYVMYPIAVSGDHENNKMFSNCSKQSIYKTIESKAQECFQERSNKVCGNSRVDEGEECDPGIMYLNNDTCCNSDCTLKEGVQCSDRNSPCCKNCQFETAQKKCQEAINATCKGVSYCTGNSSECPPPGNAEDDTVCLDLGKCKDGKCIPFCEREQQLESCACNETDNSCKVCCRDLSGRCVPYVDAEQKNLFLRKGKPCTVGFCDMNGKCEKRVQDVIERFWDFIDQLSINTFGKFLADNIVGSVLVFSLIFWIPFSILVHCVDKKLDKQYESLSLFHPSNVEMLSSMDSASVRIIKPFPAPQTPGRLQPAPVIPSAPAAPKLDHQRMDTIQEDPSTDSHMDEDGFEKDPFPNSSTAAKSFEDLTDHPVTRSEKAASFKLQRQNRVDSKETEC
Paired box protein Pax-8, sequence (Q06710 whole entry): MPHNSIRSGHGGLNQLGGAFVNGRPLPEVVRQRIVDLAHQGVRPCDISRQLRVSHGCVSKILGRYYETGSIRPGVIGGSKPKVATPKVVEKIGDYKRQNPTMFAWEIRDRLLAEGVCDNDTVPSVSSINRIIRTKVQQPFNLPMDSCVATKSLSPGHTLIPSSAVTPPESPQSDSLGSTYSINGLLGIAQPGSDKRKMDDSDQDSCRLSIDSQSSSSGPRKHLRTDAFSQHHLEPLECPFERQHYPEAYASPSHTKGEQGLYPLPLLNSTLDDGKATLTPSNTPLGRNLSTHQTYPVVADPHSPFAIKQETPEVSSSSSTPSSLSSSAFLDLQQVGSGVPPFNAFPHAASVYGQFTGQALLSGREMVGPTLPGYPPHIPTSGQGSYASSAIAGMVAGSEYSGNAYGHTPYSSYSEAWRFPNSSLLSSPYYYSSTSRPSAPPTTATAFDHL
Cytochrome P450 2D6, sequence (P10635 whole entry): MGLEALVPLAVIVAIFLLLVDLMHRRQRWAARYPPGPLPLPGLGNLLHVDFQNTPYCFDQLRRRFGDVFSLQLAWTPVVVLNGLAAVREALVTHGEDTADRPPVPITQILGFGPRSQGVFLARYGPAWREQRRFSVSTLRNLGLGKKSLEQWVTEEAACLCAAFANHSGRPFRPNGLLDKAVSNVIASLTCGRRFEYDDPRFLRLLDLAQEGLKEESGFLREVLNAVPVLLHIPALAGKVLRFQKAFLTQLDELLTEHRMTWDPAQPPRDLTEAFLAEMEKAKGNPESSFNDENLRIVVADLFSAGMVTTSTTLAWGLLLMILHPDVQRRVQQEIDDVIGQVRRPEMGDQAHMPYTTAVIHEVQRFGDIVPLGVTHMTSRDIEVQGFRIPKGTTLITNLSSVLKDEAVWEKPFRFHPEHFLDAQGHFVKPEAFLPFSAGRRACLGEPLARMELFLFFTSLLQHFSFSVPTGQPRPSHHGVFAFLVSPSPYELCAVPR
Cytochrome P450 2C9, sequence (P11712 whole entry, the tested form may be a part): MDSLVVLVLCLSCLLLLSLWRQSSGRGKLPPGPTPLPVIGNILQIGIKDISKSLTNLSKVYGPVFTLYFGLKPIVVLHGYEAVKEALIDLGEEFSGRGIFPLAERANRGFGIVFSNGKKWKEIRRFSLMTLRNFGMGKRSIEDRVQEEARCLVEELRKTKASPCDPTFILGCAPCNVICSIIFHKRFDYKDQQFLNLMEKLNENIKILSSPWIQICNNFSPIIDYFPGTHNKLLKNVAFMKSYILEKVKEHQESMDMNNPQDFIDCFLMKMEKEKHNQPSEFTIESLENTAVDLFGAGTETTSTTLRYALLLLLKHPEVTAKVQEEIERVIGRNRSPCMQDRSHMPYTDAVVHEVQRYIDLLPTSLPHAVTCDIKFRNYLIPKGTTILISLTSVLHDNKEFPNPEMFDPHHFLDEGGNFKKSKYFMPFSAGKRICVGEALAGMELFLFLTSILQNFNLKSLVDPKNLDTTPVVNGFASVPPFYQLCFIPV

SMILES: Cc1ccc(N=C2C(=O)Nc3c(C)cccc32)cc1
- EC50 [1]: > 40 µM (inactive)
- IC50 [2]: > 40 µM (not active)

SMILES: CCOc1ccc(C(c2c(C)n[nH]c2O)c2c(C)n[nH]c2O)cc1OC
- AC50 [3]: 0.386 µM (active)
- EC50 [4]: 0.309 µM (active)
- IC50 [5]: 32.9 µM (active)
- IC50 [6]: 43.6 µM (active)

SMILES: O=C(CCCC(=O)OCC(=O)c1ccc(Cl)cc1Cl)Nc1cc(C(F)(F)F)ccc1Cl
- EC50 [1]: > 40 µM (inactive)
- IC50 [2]: > 40 µM (not active)
- AC50 [7]: 12.6 µM (inconclusive)
- AC50 [8]: inconclusive

SMILES: O=C(COC(=O)/C=C/c1ccc(OC(F)F)cc1)Nc1ccc(S(=O)(=O)N2CCCC2)cc1
- IC50 [9]: > 69.5 µM (inactive)
- IC50 [10]: > 69.5 µM (inactive)

SMILES: CC(C)(C)c1ccc(C(=O)NNc2cc(N3CCCCC3)nc(N3CCCCC3)n2)cc1
- EC50 [11]: 1.7 µM (active)
- CC50 [12]: > 40 µM (active)
- EC50 [13]: > 60 µM (not active)
- IC50 [14]: 3.59 µM (active)
- IC50 [5]: 0.796 µM (active)
- IC50 [6]: 0.384 µM (active)

SMILES: O=C(CN1C(=O)C2C3CCC(C3)C2C1=O)OCC(=O)c1cccc([N+](=O)[O-])c1 (stereo not given)
- EC50 [1]: > 40 µM (inactive)
- IC50 [2]: 26.3 µM (not active)

SMILES: Cc1cnc(C(=O)OC(C)C(=O)Nc2ccc3c(c2)OCCO3)cn1 (stereo not given)
- IC50 [9]: > 69.5 µM (inactive)
- IC50 [10]: > 69.5 µM (inactive)

SMILES: COc1ccc(NC(=O)Nc2ccc3c(c2)C(=O)N([C@@H](C)CO)C[C@@H](C)[C@H](CN(C)Cc2ccc(C(F)(F)F)cc2)O3)cc1
- AC50 [15]: 22 µM (active)
- AC50 [16]: 41.7 µM (active)

SMILES: COc1cccc(S(=O)(=O)N(C)C[C@@H]2Oc3cc(C#CCC(C)C)ccc3S(=O)(=O)N([C@H](C)CO)C[C@H]2C)c1
- AC50 [17]: 36.2 µM (active)
- AC50 [18]: 36.9 µM (active)
- AC50 [19]: 8.75 µM (active)

SMILES: O=C(CCN1CCCCC1)N[C@H]1CC[C@H](CCn2cc(-c3ccccc3)nn2)O[C@@H]1CO
- AC50 [18]: 40.8 µM (active)

SMILES: C[C@@H]1CCCCO[C@@H](CN(C)Cc2ccc(C(F)(F)F)cc2)[C@H](C)CN([C@H](C)CO)C(=O)c2cc(NS(=O)(=O)c3ccccc3)ccc2O1
- AC50 [15]: 6.14 µM (active)
- AC50 [20]: 41.9 µM (active)
- AC50 [21]: 34 µM (active)

SMILES: COc1cccc(CC(=O)N(Cc2ccccc2)c2ccccc2C(=O)Nc2cc(OC)ccc2OC)c1
- IC50 [9]: > 69.5 µM (inactive)
- IC50 [10]: > 69.5 µM (inactive)

SMILES: COC(=O)[C@H](CC(C)C)N1Cc2nnn(Cc3ccc(C)cc3)c2-c2cc(F)ccc2S1(=O)=O
- IC50 [9]: > 69.5 µM (inactive)
- IC50 [10]: > 69.5 µM (inactive)
